The text below walks through data of patent publication US9879050B2, “Substituted urea depsipeptide analogs as activators of the CLPP endopeptidase” (priority 2013, dated 2018).

≈ marks a conversion by molar mass, not a printed value.

Assay [1] deals with T1, Sa-ClpP (Staphylococcus aureus, UniProt Q2G036).
T1 construct: made in house; host or cells: E. coli BL21 (DE3)
The assay can be described thus: ClpP activation, EnzCheck Protease Assay with Bodipy-FL casein (second described method). It counts as biochemical, S. aureus. Conditions: read-out: ClpP Activation EC50 (converted). The method, then:
Alternatively, the assay was carried out using EnzCheck Protease Assay (Molecular Probes, Catalog #E6638). The assay was performed in black 384 well, flat bottom, low volume plates (Greiner Bio-One, Monroe, N.C., catalog #784076). 10 μL of Tris.HCl buffer, pH 8.0 with 0.01% Triton X-100 was pipetted into each well using a Well-Mate (Thermo Scientific, Waltham, Mass.). 0.4 μL test compounds or controls (2% DMSO v/v) were added to each well using a Biomek FX liquid handling robot (Beckman Coulter, Indianapolis Ind.). After addition of test compounds and controls, 10 μL of master mix containing 2 μM Sa-ClpP and 2 μM substrate (Bodipy-FL labeled casein) in Tris*HCl buffer, pH 8.0 with 0.01% (v/v) Triton X-100, was pipetted into each well. All assays were performed in triplicate, under linear velocity conditions. Increase in fluorescent signal following activation of Sa-ClpP by test compounds and controls was measured over time period of 30 mins using filters with excitation at 485±15 nm and emission at 520±25 nm on a PHERAstar FS Multilabel reader (BMG, Cary, N.C.). […] Data analysis was done by measuring rate of casein degradation over time (slopes). Computed degradation rates (slopes) were normalized to positive (ADEP4) or negative (DMSO) controls. Using nonlinear regression curve fitting EC50 values and % activation were determined using the equation “log [agonist]vs. Response-variable slope (four parameters)-symmetrical” in the program Prism 6 (GraphPad Software, La Jolla, Calif. USA, www.graphpad.com).

The target of assay [2] is T1, Sa-ClpP. The assay can be described thus: ADEP displacement fluorescence polarization assay. Type of assay: binding, S. aureus. Conditions: 1 μM Sa-ClpP, 50 nM FP probe ADEP 2591; read-out: ADEP Displacement IC50. As for the experimental part: A fluorescence polarization (FP) assay was used to determine the activity of the disclosed compounds in displacing an ADEP analogue from ClpP. Briefly, the assay was performed in black 384 well, flat bottom, low volume plates (Greiner Bio-One, Monroe, N.C., catalog #784076). 20 μL of a pre-equilibrated (1 hr, room temperature) master mix (1 μM Sa-ClpP, 2% DMSO (v/v) and 50 nM FP probe in Tris*HCl, pH 8.0)) was pipetted into each well using a Well-Mate (Thermo Scientific, Waltham, Mass.). Sa-ClpP was prepared as described above for the ClpP activation assay. The FP probe was ADEP 2591 (structure shown above). The ADEP 2591 comprises a TAMRA fluorophore linked to a core based on modified ADEP 2378 via a short alkyl linker. Using pin transfer, approximately 0.4 μL (2% v/v DMSO) of each compound or control was added per well. After addition of compounds and controls, plates were allowed to incubate for an additional 120 minutes at room temperature. All assays were performed in triplicate. Polarization was monitored using an EnVision Multilabel reader (Perkin-Elmer, Waltham, Mass.) by exciting the FP probe at 530±25 nm, and monitoring fluorescence intensity of both parallel and perpendicular polarized light at 579±25 nm. Readout was in millipolarization units (mP).
Signal gain and G factors were determined in wells containing 20 μM ADEP 2378, which had been previously verified (data not shown) as containing completely unbound ADEP 2591. Data collected was normalized to values obtained from positive (20 μM ADEP 2378) or negative (DMSO) controls. Curves were fit with non-linear regression using the equation “log [inhibitor]vs. Response-variable slope (four parameters)-symmetrical” in the program Prism 6 (GraphPad Software, La Jolla, Calif. USA, www.graphpad.com). The structures for ADEP 2378 and ADEP 2591 are shown above. ADEP 2378 is (E)-N-((S)-1-(((2R,6S,8aS,14aS,20S,23aS)-2,6-dimethyl-5,8,14,19,23-pentaoxooctadecahydro-1H,5H,14H,19H-pyrido[2,1-i]dipyrrolo[2,1-c:2′,1′-1][1]oxa[4,7,10,13]tetraazacyclohexadecin-20-yl)amino)-1-oxo-3-phenylpropan-2-yl)pent-2-enamide. ADEP 2591 is 5-(3-(3-((6S,9S,11aS,17S,20aS)-6,10-dimethyl-5,8,11,16,20-pentaoxo-17-((S)-2-((E)-pent-2-enamido)-3-phenylpropanamido)hexadecahydro-1H,5H,16H-dipyrrolo[2,1-c:2′,1′-1][1]oxa[4,7,10,13]tetraazacyclohexadecin-9-yl)propyl)thioureido)-2-(6-(dimethylamino)-3-(dimethyliminio)-3H-xanthen-9-yl)benzoate.
A general note: In fluorescence polarisation assays a small probe gives low polarisation when free and higher when bound to something large.

For assay [3], the system named is S. aureus USA 300 ΔClpP. The assay can be described thus: Minimal inhibitory concentration, microbroth dilution. To be noted: ClpP inactivated strain. Type of assay: cell-based, Staphylococcus aureus. As for the experimental part: (§1) Minimal inhibitory concentrations (“MICs”) were determined using the microbroth dilution method according to Clinical Laboratory Standards Institute (CLSI; National, C.F. C. L. S., Methods for Dilution Antimicrobial Susceptibility Tests for Bacteria Grow aerobically-Seventh Edition: Approved Standard M7-A7, CLSI, Wayne, Pa., USA, 2008) and were read by visual inspection. Two fold serial dilutions of test compound in 100 μL of the appropriate broth media were first prepared in 96-well round bottom microtiter plates (Nalgene Nunc International, Rochester, N.Y., USA). An equivalent volume (100 μL) of bacterial broth inocula containing approximately 10^5 bacterial cfu/mL was added to each well to give final concentrations of test compound starting at 200 μM. The plates were then incubated aerobically at 37° C. All strains were incubated overnight. After incubations, in all cases the MIC was recorded as the lowest concentration of drug that prevented bacterial growth. The bacterial strains for which MIC was determined as described in Table 4.

Assay [4] relates to S. pneumoniae R6. Described as above. It counts as cell-based. To be noted: Streptococcus pneumoniae, R6, read-out: Minimal Inhibitory Concentration S. pneumoniae R6. As for the experimental part: (§2) Minimal inhibitory concentrations (“MICs”) were determined using the microbroth dilution method according to Clinical Laboratory Standards Institute (CLSI; National, C.F. C. L. S., Methods for Dilution Antimicrobial Susceptibility Tests for Bacteria Grow aerobically-Seventh Edition: Approved Standard M7-A7, CLSI, Wayne, Pa., USA, 2008) and were read by visual inspection. Two fold serial dilutions of test compound in 100 μL of the appropriate broth media were first prepared in 96-well round bottom microtiter plates (Nalgene Nunc International, Rochester, N.Y., USA). […] The plates were then incubated aerobically at 37° C. All strains were incubated overnight. After incubations, in all cases the MIC was recorded as the lowest concentration of drug that prevented bacterial growth. The bacterial strains for which MIC was determined as described in Table 4.

Assay [5] concerns S. pyogenes ATCC 700294. The description is as above. Type of assay: cell-based. Conditions: Streptococcus pyogenes, ATCC700294, read-out: Minimal Inhibitory Concentration S. pyogenes ATCC 700294. The method, then:
as §2

The subject of assay [6] is B. subtilis ATCC 23857. Described as above. It counts as cell-based. Conditions: Bacillus subtilis, ATCC23857, read-out: Minimal Inhibitory Concentration B. subtilis ATCC 23857. As for the experimental part: as §1
Assay [7] deals with S. aureus ATCC 29213. Described as above. It counts as cell-based. Conditions: Staphylococcus aureus, ATCC29213, read-out: Minimal Inhibitory Concentration S. aureus ATCC 29213. As for the experimental part: as §1

T1 sequence (Q2G036 whole entry): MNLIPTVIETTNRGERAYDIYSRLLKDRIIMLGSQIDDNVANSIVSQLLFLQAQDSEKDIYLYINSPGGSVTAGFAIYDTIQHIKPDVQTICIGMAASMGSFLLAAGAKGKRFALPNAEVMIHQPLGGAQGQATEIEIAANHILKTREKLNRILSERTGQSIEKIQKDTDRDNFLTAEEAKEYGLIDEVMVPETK

Consider `Cc1ccc(NC(=O)N[C@@H](Cc2cc(F)cc(F)c2)C(=O)N[C@H]2COC(=O)C3C[C@@H](F)CN3C(=O)[C@H](C)NC(=O)C3CCCCN3C(=O)C3CCCN3C2=O)cc1` (stereo partly drawn) [Compound 51, (S)-3-(3,5-Difluorophenyl)-N-((2R,6S,8aS,14aS,20S,23aS)-2-Fluoro-6-Methyl-5,8,14,19,23-Pentaoxooctadecahydro-1H,5H,14H,19H-Pyrido[2,1-I]Dipyrrolo[2,1-C:2′,1′-L][1]Oxa[4,7,10,13]Tetraazacyclohexadecin-20-Yl)-2-(3-(P-Tolyl)Ureido)Propanamide], for which, in assay [1], the EC50 (usually the concentration needed to bring the measured effect to its halfway point) is 2.5 ± 0.2 µM. The IC50 (commonly the concentration at which inhibition is half-maximal) in assay [2] is 9.71 ± 0.3 µM. Moreover, in assay [3], the “Minimal Inhibitory Concentration S. aureus USA 300 ΔClpP” value was over 200 µM. Also, the MIC in assay [4] is 6.3 µM (≈ 5.03 µg/mL); in assay [5], 12.5 µM (≈ 9.97 µg/mL); in assay [6], over 200 µM; in assay [7], 12.5 µM (≈ 9.97 µg/mL).
With `Cc1ccc(NC(=O)N[C@@H](Cc2cc(F)cc(F)c2)C(=O)N[C@H]2COC(=O)C3C[C@H](C)CN3C(=O)[C@H](C)NC(=O)C3CCCCN3C(=O)C3CCCN3C2=O)cc1C` (stereo partly drawn) [Compound 48, (S)-3-(3,5-Difluorophenyl)-N-((2S,6S,8aS,14aS,20S,23aS)-2,6-Dimethyl-5,8,14,19,23-Pentaoxooctadecahydro-1H,5H,14H,19H-Pyrido[2,1-I]Dipyrrolo[2,1-C:2′,1′-L][1]Oxa[4,7,10,13]Tetraazacyclohexadecin-20-Yl)-2-(3-(3,4-Dimethylphenyl)Ureido)Propanamide], the concentration for a half-maximal effect (EC50) in assay [1] was 0.7 ± 0.03 µM. Also, the IC50 in assay [2] was 8.1 ± 0.3 µM. In assay [3], the “Minimal Inhibitory Concentration S. aureus USA 300 ΔClpP” value was 200 µM. For the same compound, the MIC in assay [4] amounted to 0.8 µM (≈ 0.646 µg/mL); in assay [5], 3.1 µM (≈ 2.5 µg/mL); in assay [6], 0.2 µM (≈ 0.162 µg/mL); in assay [7], 1.6 µM (≈ 1.29 µg/mL).
Consider `Cc1ccc(NC(=O)N[C@@H](Cc2cc(F)cc(F)c2)C(=O)N[C@H]2COC(=O)C3CC(C)(C)CN3C(=O)[C@H](C)NC(=O)C3CCCCN3C(=O)C3CCCN3C2=O)cc1` (stereo partly drawn) [Compound 49, (S)-3-(3,5-Difluorophenyl)-2-(3-(P-Tolyl)Ureido)-N-((6S,8aS,14aS,20S,23aS)-2,2,6-Trimethyl-5,8,14,19,23-Pentaoxooctadecahydro-1H,5H,14H,19H-Pyrido[2,1-I]Dipyrrolo[2,1-C:2′,1′-L][1]Oxa[4,7,10,13]Tetraazacyclohexadecin-20-Yl)Propanamide], for which the EC50 in assay [1] was 2.3 ± 0.2 µM. Moreover, the concentration for half-maximal inhibition (IC50) in assay [2] was determined as 12.7 ± 0.2 µM. Further, the “Minimal Inhibitory Concentration S. aureus USA 300 ΔClpP” value in assay [3] was determined as 100 µM. For the same compound, the MIC in assay [4] was determined as 6.3 µM (≈ 5.09 µg/mL); in assay [5], 25 µM (≈ 20.2 µg/mL); in assay [6], 0.4 µM (≈ 0.323 µg/mL); in assay [7] it was 12.5 µM (≈ 10.1 µg/mL).
As for `Cc1ccc(NC(=O)N[C@@H](Cc2cc(F)cc(F)c2)C(=O)N[C@@H]2C(=O)N3CCCC3C(=O)N3CCOCC3C(=O)N[C@@H](C)C(=O)N3C[C@H](C)CC3C(=O)O[C@H]2C)cc1` (stereo partly drawn) [Compound 47, (S)-3-(3,5-Difluorophenyl)-2-(3-(P-Tolyl)Ureido)-N-((6aS,12S,13S,15aS,17R,21S,23aS)-13,17,21-Trimethyl-6,11,15,20,23-Pentaoxooctadecahydro-6H,11H,15H-[1,4]Oxazino[3,4-I]Dipyrrolo[2,1-C:2′,1′-L][1]Oxa[4,7,10,13]Tetraazacyclohexadecin-12-Yl)Propanamide], in assay [1], the EC50 was 0.4 ± 0.01 µM. Besides, the IC50 in assay [2] was 7.01 ± 0.3 µM. Further, the “Minimal Inhibitory Concentration S. aureus USA 300 ΔClpP” value in assay [3] was over 200 µM. The MIC in assay [4] was found to be 0.002 µM (≈ 0.00162 µg/mL); in assay [5], 0.02 µM (≈ 0.0162 µg/mL); in assay [6] it was 0.8 µM (≈ 0.648 µg/mL); in assay [7], 0.003 µM (≈ 0.00243 µg/mL).
As for `Cc1ccc(NC(=O)N[C@@H](Cc2cc(F)cc(F)c2)C(=O)N[C@H]2COC(=O)C3C[C@H](F)CN3C(=O)[C@H](C)NC(=O)C3CCCCN3C(=O)C3CCCN3C2=O)cc1` (stereo partly drawn) [Compound 50, (S)-3-(3,5-Difluorophenyl)-N-((2S,6S,8aS,14aS,20S,23aS)-2-Fluoro-6-Methyl-5,8,14,19,23-Pentaoxooctadecahydro-1H,5H,14H,19H-Pyrido[2,1-I]Dipyrrolo[2,1-C:2′,1′-L][1]Oxa[4,7,10,13]Tetraazacyclohexadecin-20-Yl)-2-(3-(P-Tolyl)Ureido)Propanamide], the EC50 in assay [1] was 0.9 ± 0.07 µM. Also, in assay [2], the half-inhibitory concentration (IC50) is 7.66 ± 0.2 µM. Moreover, in assay [3], the “Minimal Inhibitory Concentration S. aureus USA 300 ΔClpP” value was over 200 µM. The MIC in assay [4] is 0.8 µM (≈ 0.638 µg/mL); in assay [5], 1.6 µM (≈ 1.28 µg/mL); in assay [6], over 200 µM; in assay [7] it was 3.1 µM (≈ 2.47 µg/mL).
